# Experimental data reported in the OligoGym collection.
# Oligonucleotides are written 5' to 3', each unit as a sugar letter and its base; * is a phosphorothioate linkage, no mark a phosphodiester; rarer units and linkages stand in square brackets, end groups in braces. Plain capitals give the bases only. d = 2'-deoxy (DNA); r = 2'-OH (RNA)
# Molecular target: UBE2E3
# Assay: reporter assay of Huesken 2005
# Settings: siRNA
# Note: test concentration or dose not given here.
row,Substance,normalised inhibition (eCFP-eYFP dual reporter) [%]
1,sense rArArArArCrCrUrUrCrUrGrCrCrArCrCrCrArGdTdT / antisense rCrUrGrGrGrUrGrGrCrArGrArArGrGrUrUrUrUdCdT,32.1
2,sense rArArArGrGrUrUrArCrUrUrUrCrCrGrCrArCrCdTdT / antisense rGrGrUrGrCrGrGrArArArGrUrArArCrCrUrUrUdGdG,50.7
3,sense rArArCrArGrArGrCrArGrArArCrArCrGrArCrAdTdT / antisense rUrGrUrCrGrUrGrUrUrCrUrGrCrUrCrUrGrUrUdGdG,76.9
4,sense rArArCrArGrUrCrArGrGrGrArGrUrCrArUrCrUdTdT / antisense rArGrArUrGrArCrUrCrCrCrUrGrArCrUrGrUrUdGdA,58.5
5,sense rArArCrUrCrUrCrUrArGrCrArArArArCrCrArCdTdT / antisense rGrUrGrGrUrUrUrUrGrCrUrArGrArGrArGrUrUdTdG,52.4
6,sense rArArGrGrArGrArUrArArCrArUrUrUrArUrGrAdTdT / antisense rUrCrArUrArArArUrGrUrUrArUrCrUrCrCrUrUdTdA,52
7,sense rArArUrUrCrArGrArArGrGrArGrCrUrArGrCrUdTdT / antisense rArGrCrUrArGrCrUrCrCrUrUrCrUrGrArArUrUdCdT,71.2
8,sense rArCrArCrCrArArArCrUrCrUrCrUrArGrCrArAdTdT / antisense rUrUrGrCrUrArGrArGrArGrUrUrUrGrGrUrGrUdTdT,90.1
9,sense rArCrArGrGrArUrArGrCrCrArGrArCrArGrUrGdTdT / antisense rCrArCrUrGrUrCrUrGrGrCrUrArUrCrCrUrGrUdCdG,55.2
10,sense rArCrArUrCrArArCrArGrUrCrArGrGrGrArGrUdTdT / antisense rArCrUrCrCrCrUrGrArCrUrGrUrUrGrArUrGrUdTdG,69.9
11,sense rArCrUrArUrUrUrCrArArArGrGrUrUrUrUrGrCdTdT / antisense rGrCrArArArArCrCrUrUrUrGrArArArUrArGrUdCdA,34.3
12,sense rArCrUrGrCrArArCrCrCrUrGrCrGrGrArUrCrCdTdT / antisense rGrGrArUrCrCrGrCrArGrGrGrUrUrGrCrArGrUdCdT,71.1
13,sense rArGrArUrCrArArCrUrArUrArCrUrUrGrGrUrCdTdT / antisense rGrArCrCrArArGrUrArUrArGrUrUrGrArUrCrUdCdC,52.8
14,sense rArGrCrCrUrGrArArGrArArCrArArGrArGrGrAdTdT / antisense rUrCrCrUrCrUrUrGrUrUrCrUrUrCrArGrGrCrUdCdT,89
15,sense rArGrCrUrGrArArArUrArArCrCrCrUrUrGrArUdTdT / antisense rArUrCrArArGrGrGrUrUrArUrUrUrCrArGrCrUdAdG,82
16,sense rArGrUrCrCrCrGrCrUrUrUrGrArCrUrArUrUrUdTdT / antisense rArArArUrArGrUrCrArArArGrCrGrGrGrArCrUdCdC,56.7
17,sense rArUrArGrCrCrArCrUrCrArGrUrArUrUrUrGrAdTdT / antisense rUrCrArArArUrArCrUrGrArGrUrGrGrCrUrArUdGdC,88.7
18,sense rArUrCrArArCrArGrUrCrArGrGrGrArGrUrCrAdTdT / antisense rUrGrArCrUrCrCrCrUrGrArCrUrGrUrUrGrArUdGdT,70.5
19,sense rArUrCrArArCrUrArUrArCrUrUrGrGrUrCrCrAdTdT / antisense rUrGrGrArCrCrArArGrUrArUrArGrUrUrGrArUdCdT,59.5

# Molecular target: UBE2G1
# Assay: reporter assay of Huesken 2005
# Settings: siRNA
row,Substance,normalised inhibition (eCFP-eYFP dual reporter) [%]
1,sense rUrCrCrCrUrArUrCrCrArCrArCrUrGrUrGrGrAdTdT / antisense rUrCrCrArCrArGrUrGrUrGrGrArUrArGrGrGrAdGdC,62.1
2,sense rUrCrCrUrUrArUrUrArUrUrGrGrCrCrCrUrCrCdTdT / antisense rGrGrArGrGrGrCrCrArArUrArArUrArArGrGrAdCdT,44.7
3,sense rUrCrUrGrCrArGrGrUrUrUrArArUrArGrArUrGdTdT / antisense rCrArUrCrUrArUrUrArArArCrCrUrGrCrArGrAdAdA,60.6
4,sense rUrCrUrGrGrCrArCrCrCrArArArUrGrUrUrGrAdTdT / antisense rUrCrArArCrArUrUrUrGrGrGrUrGrCrCrArGrAdTdT,73.4
5,sense rUrGrArArArArGrCrCrArGrArGrGrArArCrGrCdTdT / antisense rGrCrGrUrUrCrCrUrCrUrGrGrCrUrUrUrUrCrAdTdA,35.9
6,sense rUrGrArArArUrUrCrArUrUrArCrArGrArArArUdTdT / antisense rArUrUrUrCrUrGrUrArArUrGrArArUrUrUrCrAdTdT,61.6
7,sense rUrGrArUrGrUrGrUrGrCrArUrUrUrCrUrArUrUdTdT / antisense rArArUrArGrArArArUrGrCrArCrArCrArUrCrAdCdC,74.8
8,sense rUrGrArUrUrArGrUrGrUrCrArUrUrUrCrUrArUdTdT / antisense rArUrArGrArArArUrGrArCrArCrUrArArUrCrAdTdG,78.5
9,sense rUrGrCrCrCrGrCrUrGrUrGrUrArArGrArArArAdTdT / antisense rUrUrUrUrCrUrUrArCrArCrArGrCrGrGrGrCrAdAdC,94.3
10,sense rUrGrCrGrArArArGrArArUrGrGrArGrGrGrArAdTdT / antisense rUrUrCrCrCrUrCrCrArUrUrCrUrUrUrCrGrCrAdGdC,72.7
11,sense rUrGrCrUrGrCrGrArArArGrArArUrGrGrArGrGdTdT / antisense rCrCrUrCrCrArUrUrCrUrUrUrCrGrCrArGrCrAdTdC,34.4
12,sense rUrGrGrArGrArArUrUrUrArArArArGrArArArAdTdT / antisense rUrUrUrUrCrUrUrUrUrArArArUrUrCrUrCrCrAdTdT,74.2
13,sense rUrGrGrUrGrArUrGrUrGrUrGrCrArUrUrUrCrUdTdT / antisense rArGrArArArUrGrCrArCrArCrArUrCrArCrCrAdTdT,85
14,sense rUrUrArGrUrGrUrCrArUrUrUrCrUrArUrGrCrUdTdT / antisense rArGrCrArUrArGrArArArUrGrArCrArCrUrArAdTdC,54
15,sense rUrUrCrUrArUrGrCrUrGrGrCrArGrArCrCrCrUdTdT / antisense rArGrGrGrUrCrUrGrCrCrArGrCrArUrArGrArAdAdT,61
16,sense rUrUrUrArArArArGrArArArArGrUrUrGrCrCrCdTdT / antisense rGrGrGrCrArArCrUrUrUrUrCrUrUrUrUrArArAdTdT,43.5
17,sense rUrUrUrCrUrArUrUrCrUrUrCrArUrGrArGrCrCdTdT / antisense rGrGrCrUrCrArUrGrArArGrArArUrArGrArArAdTdG,29.5
18,sense rUrUrUrCrUrGrCrArGrGrUrUrUrArArUrArGrAdTdT / antisense rUrCrUrArUrUrArArArCrCrUrGrCrArGrArArAdAdG,51.7
